Experiments:
[1] = biological target: T1, 5-hydroxytryptamine receptor 1A (Homo sapiens, UniProt P08908); test: Binding affinity to 5-HT1A receptor (unknown origin) expressed in HEK293 cells assessed as inhibition constant; type: cell-based
T1 sequence (P08908 whole entry): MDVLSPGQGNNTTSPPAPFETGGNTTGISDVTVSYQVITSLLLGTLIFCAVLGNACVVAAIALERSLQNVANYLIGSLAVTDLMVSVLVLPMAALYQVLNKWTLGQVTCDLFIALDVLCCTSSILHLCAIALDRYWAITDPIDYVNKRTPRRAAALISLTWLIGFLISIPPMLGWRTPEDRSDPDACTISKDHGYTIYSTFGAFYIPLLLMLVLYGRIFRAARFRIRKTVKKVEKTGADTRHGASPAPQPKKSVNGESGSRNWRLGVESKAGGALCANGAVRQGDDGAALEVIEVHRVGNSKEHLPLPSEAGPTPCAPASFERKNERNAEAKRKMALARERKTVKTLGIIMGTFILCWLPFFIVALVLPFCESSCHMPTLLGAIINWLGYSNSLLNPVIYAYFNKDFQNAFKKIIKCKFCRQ

[2] = biological target: 5-hydroxytryptamine receptor 2A (Homo sapiens, UniProt P28223); test: Binding affinity to 5-HT2A receptor (unknown origin) expressed in HEK293 cells assessed as inhibition constant; type: cell-based
5-hydroxytryptamine receptor 2A, sequence (P28223 whole entry): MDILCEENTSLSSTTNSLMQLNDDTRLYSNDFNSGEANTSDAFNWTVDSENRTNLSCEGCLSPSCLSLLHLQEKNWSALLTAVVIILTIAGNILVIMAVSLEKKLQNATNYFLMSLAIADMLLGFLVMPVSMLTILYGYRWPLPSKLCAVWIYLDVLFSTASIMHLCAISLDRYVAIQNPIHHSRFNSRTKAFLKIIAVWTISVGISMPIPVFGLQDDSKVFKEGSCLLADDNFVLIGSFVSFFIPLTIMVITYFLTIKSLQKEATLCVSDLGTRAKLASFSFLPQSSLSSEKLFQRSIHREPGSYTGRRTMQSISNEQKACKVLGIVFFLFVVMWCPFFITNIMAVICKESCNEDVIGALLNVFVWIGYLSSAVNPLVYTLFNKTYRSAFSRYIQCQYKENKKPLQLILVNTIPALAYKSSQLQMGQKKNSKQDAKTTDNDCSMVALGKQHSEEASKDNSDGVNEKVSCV

In the case of `CN(C)CCc1c[nH]c2cccc(O)c12` [PSILOCIN], the Ki [1] is reported as 0.567 µM.

Molecule `CN(C)CCc1c[nH]c2cccc(OP(=O)(O)O)c12` [PSILOCYBIN] has a Ki [2] greater than 10 µM and a Ki [1] greater than 10 µM.

Reference: ChEMBL document CHEMBL6078716, “Advances in Psychedelic Therapeutics: Novel Prodrugs and Derivatives for Enhanced Mental Health Treatment” (ACS Med Chem Lett, 2024)
